Values quoted from earlier work in PubChem BioAssay AID1259409 (Chemical Carcinogenesis Research Information System (CCRIS), 2018).

System: rodent chemically induced tumor inhibition, incidence and multiplicity
Assay: CCRIS tumor inhibitor studies

## CC(C)C[C@H]1C(=O)N2CCC[C@H]2[C@]2(O)O[C@](NC(=O)[C@@H]3C=C4c5cccc6[nH]c(Br)c(c56)C[C@H]4N(C)C3)(C(C)C)C(=O)N12
Carcinogen: 7,12-DIMETHYLBENZ[A]ANTHRACENE, 57-97-6, Dose [Inhibitor]: 0.4 MG/D FROM 90 TO 150 D OF AGE BEGINNING 30 D POST CARCINOGEN TREATMENT (STUDY DURATION: 9 MO AFTER DMBA TREATMENT), Route [Inhibitor]: SUBCUTANEOUS, Species: RAT, Strain/Sex: LONG-EVANS/FEMALE, Target Tissue: Type of Lesion: MAMMARY GLAND: CARCINOMA, Dose [Carcinogen]: 20 MG ONCE AT 60 D OF AGE, Promoter: NONE USED
  tumour outcome (control, treated, inhibition, significance): 20%, 38%, -90%, not significant
Carcinogen: 7,12-DIMETHYLBENZ[A]ANTHRACENE, 57-97-6, Dose [Inhibitor]: 0.4 MG/D FROM 90 TO 150 D OF AGE BEGINNING 30 D POST CARCINOGEN TREATMENT (STUDY DURATION: 9 MO AFTER DMBA TREATMENT), Route [Inhibitor]: SUBCUTANEOUS, Species: RAT, Strain/Sex: LONG-EVANS/FEMALE, Target Tissue: Type of Lesion: MAMMARY GLAND: FIBROADENOMA, Dose [Carcinogen]: 20 MG ONCE AT 60 D OF AGE, Promoter: NONE USED
  tumour outcome (control, treated, inhibition, significance): 16%, 0%, 100%, not significant
Carcinogen: 7,12-DIMETHYLBENZ[A]ANTHRACENE, 57-97-6, Dose [Inhibitor]: 0.4 MG/D FROM 90 TO 150 D OF AGE BEGINNING 30 D POST CARCINOGEN TREATMENT (STUDY DURATION: 9 MO AFTER DMBA TREATMENT), Route [Inhibitor]: SUBCUTANEOUS, Species: RAT, Strain/Sex: SPRAGUE-DAWLEY/FEMALE, Target Tissue: Type of Lesion: MAMMARY GLAND: CARCINOMA, Dose [Carcinogen]: 5 MG ONCE AT 60 D OF AGE, Promoter: NONE USED
  tumour outcome (control, treated, inhibition, significance): 85%, 52%, 39%, p<0.05
Carcinogen: 7,12-DIMETHYLBENZ[A]ANTHRACENE, 57-97-6, Dose [Inhibitor]: 0.4 MG/D FROM 90 TO 150 D OF AGE BEGINNING 30 D POST CARCINOGEN TREATMENT (STUDY DURATION: 9 MO AFTER DMBA TREATMENT), Route [Inhibitor]: SUBCUTANEOUS, Species: RAT, Strain/Sex: SPRAGUE-DAWLEY/FEMALE, Target Tissue: Type of Lesion: MAMMARY GLAND: FIBROADENOMA, Dose [Carcinogen]: 5 MG ONCE AT 60 D OF AGE, Promoter: NONE USED
  tumour outcome (control, treated, inhibition, significance): 22%, 10%, 54%, not significant
Carcinogen: 7,12-DIMETHYLBENZ[A]ANTHRACENE, 57-97-6, Dose [Inhibitor]: 0.4 MG/D FROM 90 TO 150 D OF AGE BEGINNING 30 D POST CARCINOGEN TREATMENT (STUDY DURATION: 12 MO AFTER DMBA TREATMENT), Route [Inhibitor]: SUBCUTANEOUS, Species: RAT, Strain/Sex: SPRAGUE-DAWLEY/FEMALE, Target Tissue: Type of Lesion: MAMMARY GLAND: CARCINOMA, Dose [Carcinogen]: 1.25 MG ONCE AT 60 D OF AGE, Promoter: NONE USED
  tumour outcome (control, treated, inhibition, significance): 15%, 10%, 33%, not significant
Carcinogen: 7,12-DIMETHYLBENZ[A]ANTHRACENE, 57-97-6, Dose [Inhibitor]: 0.4 MG/D FROM 90 TO 150 D OF AGE BEGINNING 30 D POST CARCINOGEN TREATMENT (STUDY DURATION: 12 MO AFTER DMBA TREATMENT), Route [Inhibitor]: SUBCUTANEOUS, Species: RAT, Strain/Sex: SPRAGUE-DAWLEY/FEMALE, Target Tissue: Type of Lesion: MAMMARY GLAND: FIBROADENOMA, Dose [Carcinogen]: 1.25 MG ONCE AT 60 D OF AGE, Promoter: NONE USED
  tumour outcome (control, treated, inhibition, significance): 73%, 65%, 11%, not significant
Carcinogen: 7,12-DIMETHYLBENZ[A]ANTHRACENE, 57-97-6, Dose [Inhibitor]: 0.4 MG/D FROM 90 TO 150 D OF AGE BEGINNING POST CARCINOGEN TREATMENT (STUDY DURATION: 6 MO AFTER DMBA TREATMENT), Route [Inhibitor]: SUBCUTANEOUS, Species: RAT, Strain/Sex: SPRAGUE-DAWLEY/FEMALE, Target Tissue: Type of Lesion: MAMMARY GLAND: CARCINOMA, Dose [Carcinogen]: 20 MG ONCE AT 60 D OF AGE, Promoter: NONE USED
  tumour outcome (control, treated, inhibition, significance): 96%, 87%, 9%, p<0.05
Carcinogen: 7,12-DIMETHYLBENZ[A]ANTHRACENE, 57-97-6, Dose [Inhibitor]: 0.4 MG/D FROM 93 TO 160 D OF AGE BEGINNING 30 D POST CARCINOGEN TREATMENT (STUDY DURATION: 9 MO AFTER DMBA TREATMENT), Route [Inhibitor]: SUBCUTANEOUS, Species: RAT, Strain/Sex: LEWIS/FEMALE, Target Tissue: Type of Lesion: MAMMARY GLAND: CARCINOMA, Dose [Carcinogen]: 10 MG AT 56 AND 63 D OF AGE, Promoter: NONE USED
  tumour outcome (control, treated, inhibition, significance): 94%, 55%, 41%, p<0.05
Carcinogen: 7,12-DIMETHYLBENZ[A]ANTHRACENE, 57-97-6, Dose [Inhibitor]: 6 MG/KG 6/WK FOR 80 OR 100 D BEGINNING 1 D POST CARCINOGEN DOSE (STUDY DURATION: 245 D), Route [Inhibitor]: INTRAPERITONEAL, Species: RAT, Strain/Sex: CFE/FEMALE, Target Tissue: Type of Lesion: MAMMARY GLAND: NOT SPECIFIED, Dose [Carcinogen]: 2.5 MG 1/D FOR 2 D, Promoter: NONE USED
  tumour outcome (control, treated, inhibition, significance): 17/18 (94%), 16/19 (84%), 11%, not significant
Carcinogen: 17-BETA-ESTRADIOL, 50-28-2, Dose [Inhibitor]: 0.1 MG, DAILY WITH CARCINOGEN AT 1 MO OF AGE FOR 22 MO (STUDY DURATION: 22 MO), Route [Inhibitor]: SUBCUTANEOUS, Species: MOUSE, Strain/Sex: C3H/FEMALE, Target Tissue: Type of Lesion: MAMMARY GLAND: TUMOR, Dose [Carcinogen]: 0.5 MG/L IN DRINKING WATER DAILY CONCURRENTLY WITH INHIBITOR FOR 22 MO, Promoter: NONE USED
  tumour outcome (control, treated, inhibition, significance): 27/99 (27%), 9/100 (9%), 67%, p<0.05
Carcinogen: 17BETA-ESTRADIOL, 50-28-2, Dose [Inhibitor]: 0.1 MG 1/D FOR 19 MO BEGINNING CONCURRENTLY WITH CARCINOGEN DOSE (STUDY DURATION: 19 MO), Route [Inhibitor]: SUBCUTANEOUS, Species: MOUSE, Strain/Sex: C3H/FEMALE, Target Tissue: Type of Lesion: MAMMARY GLAND: CARCINOMA, Dose [Carcinogen]: 0.5 MG/L IN DRINKING WATER BEGINNING AT 30 D OF AGE FOR 19 MO, Promoter: NONE USED
  tumour outcome (control, treated, inhibition, significance): 27/99 (27%), 9/100 (9%), 67%, p<0.001
Carcinogen: AZOXYMETHANE, 25843-45-2, Dose [Inhibitor]: 0, 2 MG/KG BW SUSPENDED IN 1 ML/MG OLIVE OIL 1/2 D FOR STUDY DURATION (STUDY DURATION: 30 WK), Route [Inhibitor]: SUBCUTANEOUS, Species: RAT, Strain/Sex: WISTAR/MALE, Target Tissue: Type of Lesion: COLON: TUMOR, Dose [Carcinogen]: 7.4 MG/KG IN 0.9% NACL 1/WK FOR 10 WK
  tumour outcome (control, treated, inhibition, significance): 9/17 (53%), 8/20 (40%), 25%, not significant
Carcinogen: DIETHYLSTILBESTROL, 56-53-1, Dose [Inhibitor]: 0.5 MG 5/WK FOR 9 MO CONCURRENTLY WITH CARCINOGEN DOSE (90 MG TOTAL DOSE) (STUDY DURATION: 9 MO), Route [Inhibitor]: SUBCUTANEOUS, Species: HAMSTER, Strain/Sex: SYRIAN/MALE, Target Tissue: Type of Lesion: KIDNEY: EPITHELIAL NEOPLASM, Dose [Carcinogen]: 0.6 MG 3/WK FOR 9 MO (65 MG TOTAL DOSE), Promoter: NONE USED
  tumour outcome (control, treated, inhibition, significance): 10/12 (83%), 7/12 (58%), 30%, not calculated
Carcinogen: DIMETHYLBENZ[A]ANTHRACENE, 57-97-6, Dose [Inhibitor]: 1 MG ONCE ON D 2 OF DIESTRUS AND ONCE AT PROESTRUS (STUDY DURATION: 26 WK), Route [Inhibitor]: INTRAPERITONEAL, Species: RAT, Strain/Sex: SPRAGUE-DAWLEY/FEMALE, Target Tissue: Type of Lesion: MAMMARY GLAND: NOT SPECIFIED, Dose [Carcinogen]: 5 MG ONCE AT 50 D OF AGE 30 HR POST 1ST AGENT DOSE, Promoter: NONE USED
  tumour outcome (control, treated, inhibition, significance): 97%, 84%, 13%, not significant
